This note sets out measurements from patent US20250206732A1, “COMPOUNDS AND METHODS FOR THE TARGETED DEGRADATION OF KRAS” (Arvinas Operations, Inc., priority 2022, published 2025).

This test has as its target T1, AsPC-1 HiBiT-KRASG12D (Homo sapiens, UniProt P01116, G12D).
T1 construct: insert the HiBiT tag onto the N-terminus of one or more of the endogenous KRAS alleles; endogenous in cells; host or cells: AsPC-1 (ATCC CRL-1682), CRISPR-Cas9 knock-in clone, one tagged allele
The test can be described thus: HiBiT degradation assay (G12D), AsPC-1 HiBiT-KRASG12D cells. Type of test: cell-based. The note with it: 24 hours treatment; for DC50: AsPC-1 HiBiT-KRASG12D cells, HiBiT luminescence; for Dmax: ASPC1, AsPC-1 HiBiT-KRASG12D cells, maximum degradation observed. The procedure, abridged:
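Steps: treat HiBiT-KRASG12D AsPC-1 cells with compound for 24 hours; add alamar blue to 1× and incubate 4 hours to assess viability; wash with PBS; add HiBiT lytic detection reagent, incubate 45 minutes at room temperature; read luminescence. Viability fluorescence is normalized to DMSO wells.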
(HiBiT is a short tag that completes a luciferase, so light tracks the accessible tagged protein.)

T1 sequence (P01116 1-188 isoform P01116-2 G12D): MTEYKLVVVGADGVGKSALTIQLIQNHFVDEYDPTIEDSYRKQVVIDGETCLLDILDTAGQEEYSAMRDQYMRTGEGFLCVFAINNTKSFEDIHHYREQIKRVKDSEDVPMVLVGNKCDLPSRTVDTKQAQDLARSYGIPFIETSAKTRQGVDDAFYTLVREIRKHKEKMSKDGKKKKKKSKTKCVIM

For `CCc1cccc2cc(O)cc(-c3ncc4c(N5CC6CCC(C5)N6)nc(OC[C@H]5CN(CC6CN(c7cc([C@@H](C(=O)N8C[C@H](O)C[C@H]8C(=O)N[C@@H](C)c8ccc(-c9scnc9C)cc8)C(C)C)on7)C6)CCN5C)nc4c3F)c12` [Compound 181, (2S,4R)-1-[(2S)-2-[3-(3-{[(3R)-3-{[(4-{3,8-diazabicyclo[3.2.1]octan-3-yl}-7-(8-ethyl-3-hydroxynaphthalen-1-yl)-8-fluoropyrido[4,3-d]pyrimidin-2-yl)oxy]methyl}-4-methylpiperazin-1-yl]methyl}azetidin-1-yl)-1,2-oxazol-5-yl]-3-methylbutanoyl]-4-hydroxy-N-[(1S)-1-[4-(4-methyl-1,3-thiazol-5-yl)phenyl]ethyl]pyrrolidine-2-carboxamide], the 50% degradation concentration (DC50) was > 3 µM.
With `CCc1cccc2cc(O)cc(-c3ncc4c(N5CC6CCC(C5)N6)nc(N5CC(CN6CCC(CC7CN(c8cc([C@H](C(=O)N9C[C@H](O)C[C@H]9C(=O)N[C@@H](C)c9ccc(-c%10scnc%10C)cc9)C(C)C)on8)C7)CC6)C5)nc4c3F)c12` [Compound 182, (2S,4R)-1-[(2R)-2-(3-{3-[(1-{[1-(4-{3,8-diazabicyclo[3.2.1]octan-3-yl}-7-(8-ethyl-3-hydroxynaphthalen-1-yl)-8-fluoropyrido[4,3-d]pyrimidin-2-yl)azetidin-3-yl]methyl}piperidin-4-yl)methyl]azetidin-1-yl}-1,2-oxazol-5-yl)-3-methylbutanoyl]-4-hydroxy-N-[(1S)-1-[4-(4-methyl-1,3-thiazol-5-yl)phenyl]ethyl]pyrrolidine-2-carboxamide], the maximal degradation (Dmax) is 20 to 60% and the DC50 was < 0.6 µM.
Turning to `C#Cc1c(F)ccc2cc(O)cc(-c3ncc4c(N5CC6CCC(C5)N6)nc(OCCN5CC[C@H]6CN(c7cc([C@H](C(=O)N8C[C@H](O)C[C@H]8C(=O)N[C@@H](C)c8ccc(-c9scnc9C)cc8)C(C)C)on7)C[C@H]6C5)nc4c3F)c12` [Compound 183, (2S,4R)-1-[(2R)-2-{3-[(3aR,7aR)-5-{2-[(4-{3,8-diazabicyclo[3.2.1]octan-3-yl}-7-(8-ethynyl-7-fluoro-3-hydroxynaphthalen-1-yl)-8-fluoropyrido[4,3-d]pyrimidin-2-yl)oxy]ethyl}-octahydro-1H-pyrrolo[3,4-c]pyridin-2-yl]-1,2-oxazol-5-yl}-3-methylbutanoyl]-4-hydroxy-N-[(1S)-1-[4-(4-methyl-1,3-thiazol-5-yl)phenyl]ethyl]pyrrolidine-2-carboxamide], the maximal degradation (Dmax) fell in the range of 80 to 100% and the DC50 was < 0.6 µM.
In the case of `C#Cc1c(F)ccc2cc(O)cc(-c3ncc4c(N5CC6CCC(C5)N6)nc(OCCN5CCC(CCC6CN(c7cc([C@H](C(=O)N8C[C@H](O)C[C@H]8C(=O)N[C@@H](C)c8ccc(-c9scnc9C)cc8)C(C)C)on7)C6)CC5)nc4c3F)c12` [Compound 184], the greatest degradation seen (Dmax) was in the range of 80 to 100% and the half-maximal degradation concentration (DC50) is < 0.6 µM.
Consider `C#Cc1c(F)ccc2cc(O)cc(-c3ncc4c(N5CC6CCC(C5)N6)nc(OCCN5CCC(C6CN(c7cc([C@H](C(=O)N8C[C@H](O)C[C@H]8C(=O)N[C@@H](C)c8ccc(-c9scnc9C)cc8)C(C)C)on7)C6)CC5)nc4c3F)c12` [Compound 185], for which the Dmax is 80 to 100% and the half-maximal degradation concentration (DC50) is < 0.6 µM.
On to `CCc1cccc2cc(O)cc(-c3ncc4c(N5CC6CCC(C5)N6)nc(OCCN5CCC(C(C)(C)N6CCN(c7cc([C@H](C(=O)N8C[C@H](O)C[C@H]8C(=O)N[C@@H](C)c8ccc(-c9scnc9C)cc8)C(C)C)on7)CC6)CC5)nc4c3F)c12` [Compound 186, (2S,4R)-1-[(2R)-2-(3-{4-[2-(1-{2-[(4-{3,8-diazabicyclo[3.2.1]octan-3-yl}-7-(8-ethyl-3-hydroxynaphthalen-1-yl)-8-fluoropyrido[4,3-d]pyrimidin-2-yl)oxy]ethyl}piperidin-4-yl)propan-2-yl]piperazin-1-yl}-1,2-oxazol-5-yl)-3-methylbutanoyl]-4-hydroxy-N-[(1S)-1-[4-(4-methyl-1,3-thiazol-5-yl)phenyl]ethyl] pyrrolidine-2-carboxamide], for which the Dmax is 80 to 100% and the half-maximal degradation concentration (DC50) is < 0.6 µM.

As a reminder, the DC50 is the concentration giving 50% degradation. A lower DC50 goes with degradation at low concentration. In general, Dmax refers to the largest share of the target that was removed. Low values mean shallow degradation, high ones deep degradation.
